Source: the NIST ThermoML archive (doi:10.1007/s10765-005-8591-6)

Test: xn = mol fraction of the nth substance listed
Conditions: Fluid (supercritical or subcritical phases), Constant-volume piezometry

FC(F)C(F)(F)F [pentafluoroethane] + FCF
Conditions | mass density [kg/m3]
258.15 K, 2177 kPa, x2 = 0.3004 | 1342.88
258.16 K, 1554.4 kPa, x2 = 0.4995 | 1294.18
258.16 K, 4595.6 kPa, x2 = 0 | 1403.78
259.14 K, 2658.3 kPa, x2 = 0.6995 | 1234.39
259.15 K, 2403.7 kPa, x2 = 0.4995 | 1294.07
259.15 K, 2913.1 kPa, x2 = 0.3004 | 1342.77
261.15 K, 3061.1 kPa, x2 = 0.8997 | 1151.87
261.15 K, 4118.3 kPa, x2 = 0.4995 | 1293.85
261.15 K, 4474.9 kPa, x2 = 0.3004 | 1342.56
261.15 K, 4516.2 kPa, x2 = 0.6995 | 1234.17
261.15 K, 6579.8 kPa, x2 = 0 | 1403.47
262.14 K, 4056 kPa, x2 = 0.8997 | 1151.77
262.14 K, 7284.6 kPa, x2 = 0 | 1403.36
263.15 K, 5058.3 kPa, x2 = 0.8997 | 1151.67
263.15 K, 5848.5 kPa, x2 = 0.4995 | 1293.64
263.15 K, 6106.3 kPa, x2 = 0.3004 | 1342.34
263.15 K, 6362.9 kPa, x2 = 0.6995 | 1233.97
264.15 K, 3235.2 kPa, x2 = 0.098 | 1362.36
264.15 K, 6053.5 kPa, x2 = 0.8997 | 1151.57
264.15 K, 7288.1 kPa, x2 = 0.6995 | 1233.88
265.15 K, 7050.9 kPa, x2 = 0.8997 | 1151.47
265.15 K, 7767 kPa, x2 = 0.3004 | 1342.13
265.15 K, 8213.6 kPa, x2 = 0.6995 | 1233.78
265.17 K, 7585.9 kPa, x2 = 0.4995 | 1293.43
267.15 K, 9040.9 kPa, x2 = 0.8997 | 1151.28
267.15 K, 9274.4 kPa, x2 = 0.4995 | 1293.23
267.15 K, 10051 kPa, x2 = 0.6995 | 1233.58
267.16 K, 5301.3 kPa, x2 = 0.098 | 1362.04
267.16 K, 9382.9 kPa, x2 = 0.3004 | 1341.92
267.16 K, 10809 kPa, x2 = 0 | 1402.84
268.15 K, 10032 kPa, x2 = 0.8997 | 1151.19
268.2 K, 10152 kPa, x2 = 0.4995 | 1293.13
269.14 K, 10950 kPa, x2 = 0.4995 | 1293.04
269.15 K, 10983 kPa, x2 = 0.3004 | 1341.71
269.15 K, 11894 kPa, x2 = 0.6995 | 1233.38
269.16 K, 11031 kPa, x2 = 0.8997 | 1151.09
270.15 K, 7414.4 kPa, x2 = 0.098 | 1361.73
270.19 K, 13003 kPa, x2 = 0 | 1402.53
271.13 K, 12647 kPa, x2 = 0.4995 | 1292.84
271.15 K, 13008 kPa, x2 = 0.8997 | 1150.92
271.16 K, 13740 kPa, x2 = 0.6995 | 1233.2
273.08 K, 14311 kPa, x2 = 0.4995 | 1292.65
273.15 K, 9532.7 kPa, x2 = 0.098 | 1361.42
273.15 K, 14255 kPa, x2 = 0.3004 | 1341.32
273.15 K, 14990 kPa, x2 = 0.8997 | 1150.74
273.15 K, 15076 kPa, x2 = 0 | 1402.23
273.16 K, 15579 kPa, x2 = 0.6995 | 1233.01
274.14 K, 15969 kPa, x2 = 0.8997 | 1150.66
274.16 K, 16499 kPa, x2 = 0.6995 | 1232.92
275.13 K, 16066 kPa, x2 = 0.4995 | 1292.46
275.15 K, 16572 kPa, x2 = 0 | 1402.04
282.15 K, 15978 kPa, x2 = 0.098 | 1360.53
313.13 K, 2217.5 kPa, x2 = 0.3003 | 1050.39
313.15 K, 2820.6 kPa, x2 = 0.1 | 1097.54
318.14 K, 2959 kPa, x2 = 0.8992 | 900.95
318.15 K, 2921.8 kPa, x2 = 0.6998 | 949.66
318.15 K, 4528.5 kPa, x2 = 0.1 | 1097.17
318.18 K, 3901.3 kPa, x2 = 0.3003 | 1050.03
318.21 K, 3341.8 kPa, x2 = 0.4993 | 1000.3
323.13 K, 5212.3 kPa, x2 = 0.8992 | 900.63
323.14 K, 4867 kPa, x2 = 0.6998 | 949.34
323.15 K, 5129.3 kPa, x2 = 0.4993 | 999.96
323.16 K, 5645.9 kPa, x2 = 0.3003 | 1049.68
323.16 K, 6252.9 kPa, x2 = 0.1 | 1096.79
328.14 K, 6839.9 kPa, x2 = 0.6998 | 949.01
328.15 K, 7408.9 kPa, x2 = 0.3003 | 1049.33
328.15 K, 7986 kPa, x2 = 0.1 | 1096.43
328.16 K, 6969.7 kPa, x2 = 0.4993 | 999.62
328.16 K, 7509.2 kPa, x2 = 0.8992 | 900.31
333.13 K, 8834 kPa, x2 = 0.6998 | 948.69
333.13 K, 9793.4 kPa, x2 = 0.8992 | 900.01
333.14 K, 9188.4 kPa, x2 = 0.3003 | 1048.98
333.15 K, 8814.5 kPa, x2 = 0.4993 | 999.29
333.17 K, 9741.9 kPa, x2 = 0.1 | 1096.06
338.12 K, 12100 kPa, x2 = 0.8992 | 899.7
338.13 K, 10843 kPa, x2 = 0.6998 | 948.37
338.13 K, 10979 kPa, x2 = 0.3003 | 1048.63
338.14 K, 11489 kPa, x2 = 0.1 | 1095.7
338.19 K, 10690 kPa, x2 = 0.4993 | 998.95
343.12 K, 12860 kPa, x2 = 0.6998 | 948.05
343.12 K, 14419 kPa, x2 = 0.8992 | 899.4
343.13 K, 12772 kPa, x2 = 0.3003 | 1048.29
343.13 K, 13247 kPa, x2 = 0.1 | 1095.35
343.18 K, 12550 kPa, x2 = 0.4993 | 998.62
348.12 K, 14887 kPa, x2 = 0.6998 | 947.74
348.13 K, 16746 kPa, x2 = 0.8992 | 899.1
348.16 K, 14423 kPa, x2 = 0.4993 | 998.3
348.16 K, 15022 kPa, x2 = 0.1 | 1094.99
348.17 K, 14592 kPa, x2 = 0.3003 | 1047.95
353.11 K, 16917 kPa, x2 = 0.6998 | 947.43
353.13 K, 16290 kPa, x2 = 0.4993 | 997.98
353.14 K, 16386 kPa, x2 = 0.3003 | 1047.61
353.14 K, 16782 kPa, x2 = 0.1 | 1094.64
354.13 K, 16744 kPa, x2 = 0.3003 | 1047.54
354.15 K, 16672 kPa, x2 = 0.4993 | 997.91
